Measured values taken from publication PMC12669672, “Structural insights into selective and dual antagonism of EP2 and EP4 prostaglandin receptors” (The EMBO Journal, 2025).
Several values for one entry are separate records, joined by “and”; a condition that tells them apart may be missing. Equal entries are not always repeated. Entries after “also recorded” stand apart in the source; their conditions may differ. Where two headings read alike, the source gives them in different places.

What was measured:
Assay in all cases: GloSensor cAMP assay, antagonism of PGE2-induced cAMP
Assay type in all cases: cell-based
EP2 WT = EP2 WT (Homo sapiens, UniProt P43116); set-up: The full-length EP2 or EP4 was cloned into the pcDNA3.1 vector; FLAG (N); expressed in transfected cells; host or cells: AD293 cells; conditions: for remaining activity at 0.1 µM / remaining activity at 0.01 µM / remaining activity at 0.001 µM / remaining activity at 0.0001 µM / remaining activity at 10 pM / remaining activity at 1 pM / remaining activity at 10 µM / remaining activity at 1 µM: 1 h; for remaining activity at 0.1 µM / remaining activity at 0.01 µM / remaining activity at 0.001 µM / remaining activity at 0.0001 µM / remaining activity at 10 pM / remaining activity at 1 pM / remaining activity at 10 µM / remaining activity at 1 µM / cAMP activity (∆pIC50 from EP2 WT): single experiments 1st-3rd
Protocol: (§1) The full-length EP2 or EP4 was cloned into the pcDNA3.1 vector (Invitrogen), incorporating an N-terminal FLAG tag. AD293 cells were seeded in six-well plates containing DMEM supplemented with 10% dialyzed FBS 1 day prior to transfection. Following overnight growth, cells were transfected with a 1:1 ratio of receptor construct and GloSensor22F cAMP biosensor (Promega) plasmids.
(§2) Twenty-four hours post-transfection, the cells were transferred to CO2-independent media containing 2% GloSensor cAMP Reagent (Promega) and distributed into 384-well assay plates at a density of 4000 cells per well in 10 μL. […] The plates were then incubated at 37 °C for an additional hour before luminescence measurements were taken using an EnVision plate reader.
(§3) Data analysis was performed using GraphPad Prism software v8.0.1. A nonlinear regression analysis, employing a sigmoidal dose–response model, was conducted to determine the Emax values and half-maximum inhibitory concentrations (IC50) for each compound tested.

EP2 M116A = molecular target: T1, EP2 M116A (Homo sapiens, UniProt P43116, M116A); conditions: 1 h, single experiments 1st-3rd, Fig. 3D, read-out: % cAMP activity (normalized to WT)
T1 construct: The full-length EP2 or EP4 was cloned into the pcDNA3.1 vector; FLAG (N); expressed in transfected cells; host or cells: AD293 cells
Protocol: as §1, §2, §3

EP2 S86A = molecular target: T2, EP2 S86A (Homo sapiens, UniProt P43116, S86A); conditions: 1 h, PF-04418948 log([M]) -8; single experiments 1st-3rd; Fig. 3D; read-out: % cAMP activity (normalized to WT)
T2 construct: The full-length EP2 or EP4 was cloned into the pcDNA3.1 vector; FLAG (N); expressed in transfected cells; host or cells: AD293 cells
Protocol: as §1, §2, §3

T1 sequence (P43116 whole entry M116A): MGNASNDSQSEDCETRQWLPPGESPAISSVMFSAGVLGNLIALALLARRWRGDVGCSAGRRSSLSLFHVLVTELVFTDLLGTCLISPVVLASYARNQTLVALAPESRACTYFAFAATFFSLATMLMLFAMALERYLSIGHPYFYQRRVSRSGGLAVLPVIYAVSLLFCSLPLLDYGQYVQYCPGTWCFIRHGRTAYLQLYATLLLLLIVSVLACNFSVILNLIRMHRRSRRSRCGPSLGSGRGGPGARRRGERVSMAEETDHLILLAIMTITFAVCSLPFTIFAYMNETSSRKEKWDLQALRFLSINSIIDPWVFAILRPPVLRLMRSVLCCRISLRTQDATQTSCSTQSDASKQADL
Sequence of EP2 WT (P43116 whole entry): as the sequence (P43116 whole entry M116A) above, with A116M counted along it
T2 sequence (P43116 whole entry S86A): as the sequence (P43116 whole entry M116A) above, with S86A, A116M counted along it

`COc1ccc2cc(OCC3(C(=O)O)CN(C(=O)c4ccc(F)cc4)C3)ccc2c1` [PF-04418948] gave a remaining activity at 0.1 µM (EP2 WT; PF-04418948 log([M]) -7, Fig. 3D, read-out: % cAMP activity (normalized to WT)) of 5.55%, a remaining activity at 0.01 µM (EP2 WT; PF-04418948 log([M]) -8, Fig. 3D, read-out: % cAMP activity (normalized to WT)) of 44.3% and a remaining activity at 0.001 µM (EP2 WT; PF-04418948 log([M]) -9, Fig. 3D, read-out: % cAMP activity (normalized to WT)) of 82.7%. For the same compound, the remaining activity at 0.0001 µM (EP2 WT; PF-04418948 log([M]) -10, Fig. 3D, read-out: % cAMP activity (normalized to WT)) was 105%, the remaining activity at 10 pM (EP2 WT; PF-04418948 log([M]) -11, Fig. 3D, read-out: % cAMP activity (normalized to WT)) was 101% and the remaining activity at 1 pM (EP2 WT; PF-04418948 log([M]) -12, Fig. 3D, read-out: % cAMP activity (normalized to WT)) was 104%. It also gave a remaining activity at 10 µM (EP2 WT; ligand log([M]) -5, Fig. S7B, read-out: % cAMP activity (normalized to WT)) of 2.66%, a remaining activity at 1 µM (EP2 WT; ligand log([M]) -6, Fig. S7B, read-out: % cAMP activity (normalized to WT)) of 2.72% and a remaining activity at 0.1 µM (EP2 WT; ligand log([M]) -7, Fig. S7B, read-out: % cAMP activity (normalized to WT)) of 8.2%. It also gave a remaining activity at 0.01 µM (EP2 WT; ligand log([M]) -8, Fig. S7B, read-out: % cAMP activity (normalized to WT)) of 63.2%, a remaining activity at 0.001 µM (EP2 WT; ligand log([M]) -9, Fig. S7B, read-out: % cAMP activity (normalized to WT)) of 96.2% and a remaining activity at 0.0001 µM (EP2 WT; ligand log([M]) -10, Fig. S7B, read-out: % cAMP activity (normalized to WT)) of 92.4%. The remaining activity at 10 pM (EP2 WT; ligand log([M]) -11, Fig. S7B, read-out: % cAMP activity (normalized to WT)) was 103%, the remaining activity at 1 pM (EP2 WT; ligand log([M]) -12, Fig. S7B, read-out: % cAMP activity (normalized to WT)) was 101% and the remaining activity at 10 µM (EP2 WT; read-out: % cAMP activity on EP2 (normalized to PF-04418948), ligand log([M]) -5, Fig. S1A) was 2.66%. The remaining activity at 1 µM (EP2 WT; read-out: % cAMP activity on EP2 (normalized to PF-04418948), ligand log([M]) -6, Fig. S1A) was 2.72%, the remaining activity at 0.1 µM (EP2 WT; read-out: % cAMP activity on EP2 (normalized to PF-04418948), ligand log([M]) -7, Fig. S1A) was 8.2% and the remaining activity at 0.01 µM (EP2 WT; read-out: % cAMP activity on EP2 (normalized to PF-04418948), ligand log([M]) -8, Fig. S1A) was 63.2%. It also gave a remaining activity at 0.001 µM (EP2 WT; read-out: % cAMP activity on EP2 (normalized to PF-04418948), ligand log([M]) -9, Fig. S1A) of 96.2%, a remaining activity at 0.0001 µM (EP2 WT; read-out: % cAMP activity on EP2 (normalized to PF-04418948), ligand log([M]) -10, Fig. S1A) of 92.4% and a remaining activity at 10 pM (EP2 WT; read-out: % cAMP activity on EP2 (normalized to PF-04418948), ligand log([M]) -11, Fig. S1A) of 103%. The remaining activity at 1 pM (EP2 WT; read-out: % cAMP activity on EP2 (normalized to PF-04418948), ligand log([M]) -12, Fig. S1A) was 101%, the “antagonism profile EP2 versus EP4 (in words)” value (EP2 WT; cAMP accumulation assay upon PGE2 stimulation, Appendix Fig. S1A) was “selective antagonists of EP2; also recorded: highly selective for EP2 over EP4” and the “cAMP activity (∆pIC50 from EP2 WT)” value (EP2 WT; Appendix Fig. S7A) was 0.0005 and 0.053 and -0.059. The “cAMP activity (∆pIC50 from EP2 WT)” value (EP2 WT; Fig. 3E) was 0.043 and 0.00333 and -0.047, the remaining activity at 1 µM (EP2 M116A; PF-04418948 log([M]) -6) was 5.4% and the remaining activity at 0.1 µM (EP2 M116A; PF-04418948 log([M]) -7) was 26.1%. For the same compound, the remaining activity at 0.01 µM (EP2 M116A; PF-04418948 log([M]) -8) was 58.4%, the remaining activity at 0.001 µM (EP2 M116A; PF-04418948 log([M]) -9) was 56.2% and the remaining activity at 0.0001 µM (EP2 M116A; PF-04418948 log([M]) -10) was 64.8%. It also gave a remaining activity at 10 pM (EP2 M116A; PF-04418948 log([M]) -11) of 75.1%, a remaining activity at 1 pM (EP2 M116A; PF-04418948 log([M]) -12) of 77.8% and a remaining activity at 0.01 µM (EP2 S86A) of 35%.
